Where two headings read alike, the source gives them in different places.
Key:
His6-TEV-PPARγ-(234-505) = biological target: T1, His6-TEV-PPARγ-(234-505) (Homo sapiens, UniProt P37231); experiment: TR-FRET Assay to Measure Co-R Peptide Recruitment to PPARγ; assay type: biochemical; conditions: Co-R peptide (SMRT-ID2) recruitment; top final concentration 20 μM; read-out: TR-FRET i-Ag; AC50
T1 construct: The His6-TEV-PPARγ-(234-505) protein for assay was expressed and purified; TEV cleavage site (N); made in house
T1 sequence (P37231 234-505): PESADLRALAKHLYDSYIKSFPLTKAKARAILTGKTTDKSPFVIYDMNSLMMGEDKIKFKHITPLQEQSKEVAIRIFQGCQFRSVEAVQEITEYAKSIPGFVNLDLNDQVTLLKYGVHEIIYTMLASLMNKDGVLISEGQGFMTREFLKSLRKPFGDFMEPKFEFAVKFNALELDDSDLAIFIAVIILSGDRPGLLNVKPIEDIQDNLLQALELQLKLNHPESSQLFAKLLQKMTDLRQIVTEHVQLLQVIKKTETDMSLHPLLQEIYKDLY
Outline: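 His-tagged PPARγ (or controls) was preincubated with compound for 20 minutes at room temperature, then 5 nM anti-His terbium antibody and 200 nM FITC-labeled SMRT-ID2 corepressor peptide (final) were added for a further hour. TR-FRET signal was normalized to percent response using 500 nM T0070907 and DMSO controls.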

UM-UC-9 engineered cells = experiment: Cell proliferation / short-term viability assay, CellTiter-Glo 144 h; assay type: cell-based, human; conditions: read-out: CTGlo 144 h UMUC9.5, G150
Outline: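 UM-UC-9 engineered assay-ready cells seeded at 500 cells/well in high-glucose DMEM/10% FBS, treated from dose-response plates, grown at 37° C, 5% CO2. CellTiter-Glo 2.0 luminescence read on day 7, with a day-0 pretreatment plate as T0 reference and DMSO wells as negative control.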

AC50 (His6-TEV-PPARγ-(234-505))	Compound	IC50 (UM-UC-9 engineered cells)	IC50 (UM-UC-9 engineered cells; Homo sapiens, UM-UC-9, 144 h)
12 nM	Cc1cc(-c2cc(C(=O)N3CCC(C(=O)NCc4ccc5[nH]nc(F)c5c4)CC3)n[nH]2)c(F)cn1 [Example 269, N-[(3-fluoro-1H-indazol-5-yl)methyl]-1-[5-(5-fluoro-2-methylpyridin-4-yl)-1H-pyrazole-3-carbonyl]piperidine-4-carboxamide]	–	160 nM
658 nM	COc1cc(-c2cc(C(=O)N3CCC(C(=O)NC4CCC(C)(O)CC4)CC3)n[nH]2)c(Cl)cn1 (stereo not drawn) [Example 264-A]	–	4890 nM
410 nM	COc1cc(-c2cc(C(=O)N3CC[C@H](C(=O)NCC45CC(C4)N(CC(C)(C)F)C5)CC34CC4)n[nH]2)c(F)cn1 [Example 440, (S)-4-(5-(5-fluoro-2-methoxypyridin-4-yl)-1H-pyrazole-3-carbonyl)-N-((2-(2-fluoro-2-methylpropyl)-2-azabicyclo[2.1.1]hexan-4-yl)methyl)-4-azaspiro[2.5]octane-7-carboxamide]	–	927 nM
32 nM	COc1cc(-c2cc(C(=O)N3CCC(C(=O)N[C@H]4CC[C@@](O)(C(F)(F)F)CC4)CC3)n[nH]2)c(Cl)cn1 [Example 199, 1-(5-(5-chloro-2-methoxypyridin-4-yl)-1H-pyrazole-3-carbonyl)-N-((1r,4r)-4-hydroxy-4-(trifluoromethyl)cyclohexyl)piperidine-4-carboxamide]	–	140 nM
123 nM	COc1cc(-c2cc(C(=O)N3CC[C@H](C(=O)NC4(C#N)CC4)CC34CC4)n[nH]2)c(F)cn1 [Example 448, (S)—N-(1-cyanocyclopropyl)-4-(5-(5-fluoro-2-methoxypyridin-4-yl)-1H-pyrazole-3-carbonyl)-4-azaspiro[2.5]octane-7-carboxamide]	–	1640 nM
331 nM	COc1cc(-c2cc(C(=O)N3CC[C@H](C(=O)NC4CCC(O)(C(F)(F)F)C(O)C4)CC34CC4)n[nH]2)c(F)cn1 (single isomer, unassigned) [Example 474-D]	2020 nM	–
144 nM	COc1cc(-c2cc(C(=O)N3CCC(C(=O)NCc4ccc5cn[nH]c5c4)CC3)n[nH]2)c(Cl)cn1 [Example 180, N-((1H-indazol-6-yl)methyl)-1-(5-(5-chloro-2-methoxypyridin-4-yl)-1H-pyrazole-3-carbonyl)piperidine-4-carboxamide]	–	707 nM
197 nM	COc1cc(-c2cc(C(=O)N3CCC(C(=O)NCc4ccc5n[nH]nc5c4)CC3)n[nH]2)c(Cl)cn1 [Example 197, N-((2H-benzo[d][1,2,3]triazol-5-yl)methyl)-1-(5-(5-chloro-2-methoxypyridin-4-yl)-1H-pyrazole-3-carbonyl)piperidine-4-carboxamide]	–	3930 nM
383 nM	COc1cc(-c2cc(C(=O)N3CCC(C(=O)NC4CC(C)(F)C4)CC3)n[nH]2)c(Cl)cn1 (mixture of isomers) [Example 246, 1-(5-(5-chloro-2-methoxypyridin-4-yl)-1H-pyrazole-3-carbonyl)-N-(3-fluoro-3-methylcyclobutyl)piperidine-4-carboxamide]	–	1230 nM
2.9 nM	CO[C@]1(C(F)(F)F)CC[C@@H](NC(=O)[C@H]2CCN(C(=O)c3cc(-c4cc(C)ncn4)[nH]n3)C3(CC3)C2)CC1 (single isomer, unassigned) [Example 309-A]	–	5.4 nM
294 nM	COc1cc(-c2cc(C(=O)N3CC[C@H](C(=O)NCC45COC(CN)(C4)C5)CC34CC4)n[nH]2)c(F)cn1 [Example 499, (S)—N-((1-(aminomethyl)-2-oxabicyclo[2.1.1]hexan-4-yl)methyl)-4-(5-(5-fluoro-2-methoxypyridin-4-yl)-1H-pyrazole-3-carbonyl)-4-azaspiro[2.5]octane-7-carboxamide]	–	> 10000 nM
349 nM	COc1cc(-c2cc(C(=O)N3CCC(C(=O)NC4CCC(F)(F)C4)CC3)n[nH]2)c(Cl)cn1 (racemic) [Example 175, 1-(5-(5-chloro-2-methoxypyridin-4-yl)-1H-pyrazole-3-carbonyl)-N-(3,3-difluorocyclopentyl)piperidine-4-carboxamide]	–	1640 nM
5.3 nM	COc1cc(-c2cc(C(=O)N3CC[C@H](C(=O)NC4CCCn5cc(C(F)(F)F)nc54)CC34CC4)n[nH]2)c(F)cn1 (single isomer, unassigned) [Example 502-B]	66.1 nM	–
7.9 nM	COc1cc(-c2cc(C(=O)N3CC[C@H](C(=O)NCc4sc(C)nc4C(F)(F)F)CC34CC4)[nH]n2)c(F)cn1 [Example 517, (S)-4-(3-(5-fluoro-2-methoxypyridin-4-yl)-1H-pyrazole-5-carbonyl)-N-((2-methyl-4-(trifluoromethyl)thiazol-5-yl)methyl)-4-azaspiro[2.5]octane-7-carboxamide]	–	20.3 nM
336 nM	COc1cc(-c2cc(C(=O)N3CCC(C(=O)NC4CCC(O)(C(F)(F)F)C(O)C4)CC34CC4)n[nH]2)c(F)cn1 (mixture of isomers) [Example 474-A]	6210 nM	–

Compound	AC50 (His6-TEV-PPARγ-(234-505))	IC50 (UM-UC-9 engineered cells)	IC50 (UM-UC-9 engineered cells; Homo sapiens, UM-UC-9, 144 h)
COc1cc(-c2cc(C(=O)N3CCC(C(=O)NC4CCN(c5ccnc6[nH]ncc56)C4)CC34CC4)n[nH]2)c(F)cn1 (mixture of isomers) [Example 450, (S)—N—((S)-1-(1H-pyrazolo[3,4-b]pyridin-4-yl)pyrrolidin-3-yl)-4-(5-(5-fluoro-2-methoxypyridin-4-yl)-1H-pyrazole-3-carbonyl)-4-azaspiro[2.5]octane-7-carboxamide and (S)—N—((R)-1-(1H-pyrazolo[3,4-b]pyridin-4-yl)pyrrolidin-3-yl)-4-(5-(5-fluoro-2-methoxypyridin-4-yl)-1H-pyrazole-3-carbonyl)-4-azaspiro[2.5]octane-7-carboxamide]	1.5 nM	114 nM	–
COc1cc(-c2cc(C(=O)N3CCC(C(=O)NC4CCC(O)(C(F)(F)F)CC4)CC34CC4)n[nH]2)c(F)cn1 (mixture of isomers) [Example 169, (R)-4-(5-(5-fluoro-2-methoxypyridin-4-yl)-1H-pyrazole-3-carbonyl)-N-((1r,4R)-4-hydroxy-4-(trifluoromethyl)cyclohexyl)-4-azaspiro[2.5]octane-7-carboxamide and (S)-4-(5-(5-fluoro-2-methoxypyridin-4-yl)-1H-pyrazole-3-carbonyl)-N-((1r,4S)-4-hydroxy-4-(trifluoromethyl)cyclohexyl)-4-azaspiro[2.5]octane-7-carboxamide]	4.5 nM	2.1 nM	–
(S)—N—((R)-1-(3-chloropyridin-2-yl)ethyl)-4-(5-(5-fluoro-2-methoxypyridin-4-yl)-1H-pyrazole-3-carbonyl)-4-azaspiro[2.5]octane-7-carboxamide and (S)—N—((S)-1-(3-chloropyridin-2-yl)ethyl)-4-(5-(5-fluoro-2-methoxypyridin-4-yl)-1H-pyrazole-3-carbonyl)-4-azaspiro[2.5]octane-7-carboxamide [Example 360]	21.8 nM	8.7 nM	–

Source: patent publication US12606541B2, “PPARg modulators and methods of use” (Eisai R&D Management Co., Ltd., priority 2020, dated 2026)
